Calls of active or inactive are those of the source. The calls are words filed in the database; no cut-off is given here.
Columns and labels:
Rattus norvegicus [1] = assay: Anticonvulsant activity in SwissRattus norvegicus albino (rat) assessed as protection against pentamethylene tetrazole-induced seizures at 5 mg/kg, ip administered for 15 min prior to pentamethylene tetrazole induction relative to placebo; assay type: functional, Swiss albino
Rattus norvegicus [2] = assay: Toxicity in SwissRattus norvegicus albino (rat) up to 10 mg/kg, ip measured for 24 hr; assay type: organism-based, Swiss albino; design: dose 10 mg/kg, route intraperitoneal; conditions: in vivo
Rattus norvegicus [3] = assay: Anticonvulsant activity in SwissRattus norvegicus albino (rat) assessed as protection against pentamethylene tetrazole-induced seizures at 10 mg/kg, ip administered for 15 min prior to pentamethylene tetrazole induction relative to placebo; assay type: functional, Swiss albino

| Structure (SMILES) | Activity (Rattus norvegicus [1]; route intraperitoneal) [%] | Activity (Rattus norvegicus [2]) | Activity (Rattus norvegicus [3]; route intraperitoneal) [%] | Activity (Rattus norvegicus [1]; Swiss albino) | Activity (Rattus norvegicus [3]; Swiss albino) |
| --- | --- | --- | --- | --- | --- |
| Cc1c(C(=O)NNC(N)=S)[nH]c(/C=C/c2ccc([N+](=O)[O-])cc2)c1C(=O)NNC(N)=S | 0 | Non-toxic | 0 | – | – |
| O=C1NC(=O)C(c2ccccc2)(c2ccccc2)N1 [PHENYTOIN] | – | Non-toxic | 98 | – | – |
| CCOC(=O)c1[nH]c(/C=C/c2ccc(O)cc2)c(C(=O)OCC)c1C | – | – | – | inactive | inactive |
| CCOC(=O)c1[nH]c(/C=C/c2ccc(N(C)C)cc2)c(C(=O)OCC)c1C | – | – | – | inactive | inactive |
| Cc1c(C(=O)NNC(N)=S)[nH]c(/C=C/c2ccc(Cl)cc2)c1C(=O)NNC(N)=S | 19 | Non-toxic | 48 | – | – |
| Cc1c(C(=O)NNC(N)=S)[nH]c(/C=C/c2ccccc2)c1C(=O)NNC(N)=S | 33 | Non-toxic | 66 | – | – |
| CCOC(=O)c1[nH]c(/C=C/c2ccc(OC)cc2)c(C(=O)OCC)c1C | – | – | – | inactive | inactive |
| CCOC(=O)c1[nH]c(/C=C/c2ccc([N+](=O)[O-])cc2)c(C(=O)OCC)c1C | – | – | – | inactive | inactive |
| CCOC(=O)c1[nH]c(/C=C/c2ccc(Cl)cc2)c(C(=O)OCC)c1C | – | – | – | inactive | inactive |
| CCOC(=O)c1[nH]c(/C=C/c2ccccc2)c(C(=O)OCC)c1C | – | – | – | inactive | inactive |
| Cc1c(C(=O)NNC(N)=S)[nH]c(/C=C/c2ccc(N(C)C)cc2)c1C(=O)NNC(N)=S | 21 | Non-toxic | 46 | – | – |
| Cc1c(C(=O)NNC(N)=S)[nH]c(/C=C/c2ccc(O)cc2)c1C(=O)NNC(N)=S | 0 | Non-toxic | 0 | – | – |
| COc1ccc(/C=C/c2[nH]c(C(=O)NNC(N)=S)c(C)c2C(=O)NNC(N)=S)cc1 | 0 | Non-toxic | 0 | – | – |

— ChEMBL document CHEMBL3045397, “Synthesis and anticonvulsant activity of some new series of pyrrole derivatives” (Med Chem Res, 2012)
